Measured values as given in ChEMBL document CHEMBL1201862, “PubChem BioAssay data set” (2004).
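Grown in 96-well plates, cells were treated for 48 hours with each compound at five concentrations. Insufficient inhibition: endpoint recorded as highest concentration tested. At the GI50, growth is halved.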 Calls of active or inactive are those of the source. Rule as the data show it: active = GI50 up to about 1.1 µM and inactive = higher.

Columns and labels:
Experiment in all cases: NCI anticancer screen, dose series, 48 h
UACC-62 = tested on: UACC-62
SF-268 = tested on: SF-268
SK-MEL-2 = tested on: SK-MEL-2
EKVX = tested on: EKVX
SR = tested on: SR
M14 = tested on: M14
SK-OV-3 = tested on: SK-OV-3
OVCAR-8 = tested on: OVCAR-8
786-0 = tested on: 786-0
NCI-H23 = tested on: NCI-H23
HT-29 = tested on: HT-29
CAKI-1 = tested on: CAKI-1
SN12C = tested on: SN12C
NCI-H522 = tested on: NCI-H522
SW-620 = tested on: SW-620

Measured: GI50

Nn1c(S)nnc1N/N=C1/C(=O)Nc2ccccc21
inactive: UACC-62 71.8 µM | SF-268 56 µM | SK-MEL-2 > 100 µM | EKVX > 100 µM | SR 39.6 µM | M14 62.1 µM | SK-OV-3 43.7 µM | OVCAR-8 49.5 µM | 786-0 > 100 µM | NCI-H23 16.9 µM | HT-29 > 100 µM | CAKI-1 52.6 µM | SN12C 50.6 µM | NCI-H522 44.9 µM | SW-620 78.2 µM

c1ccc(CN2CCCCC(Sc3ccccc3)CC2)cc1 (stereo not drawn)
inactive: UACC-62 36 µM | SF-268 > 100 µM | SK-MEL-2 32.9 µM | EKVX 35.2 µM | SR 17.8 µM | M14 16.1 µM | SK-OV-3 58.2 µM | OVCAR-8 27.8 µM | 786-0 16.8 µM | NCI-H23 30.1 µM | HT-29 17.7 µM | CAKI-1 26.9 µM | SN12C 24.7 µM | SW-620 1.53 µM

NC(=O)N/N=C(/c1nc2ccc([N+](=O)[O-])cc2nc1O)C(O)c1ccco1 (stereo not drawn)
inactive: UACC-62 29.2 µM | SF-268 63.4 µM | SR 57.1 µM | M14 93.8 µM | SK-OV-3 > 100 µM | OVCAR-8 > 100 µM | 786-0 97.5 µM | NCI-H23 > 100 µM | HT-29 46.2 µM | CAKI-1 61.7 µM | SN12C 17.4 µM | NCI-H522 14.7 µM | SW-620 44.6 µM

Cc1c(C(=N)N)oc2ccccc12
inactive: UACC-62 > 100 µM | SF-268 > 100 µM | EKVX > 100 µM | SR > 100 µM | M14 > 100 µM | SK-OV-3 > 100 µM | OVCAR-8 > 100 µM | 786-0 > 100 µM | NCI-H23 > 100 µM | HT-29 > 100 µM | CAKI-1 > 100 µM | SN12C > 100 µM | NCI-H522 > 100 µM | SW-620 > 100 µM

O=c1[nH][nH]c(=O)[nH]1
inactive: UACC-62 > 100 µM | SF-268 > 100 µM | SK-MEL-2 > 100 µM | EKVX > 100 µM | SR > 100 µM | M14 > 100 µM | SK-OV-3 > 100 µM | 786-0 > 100 µM | NCI-H23 > 100 µM | HT-29 > 100 µM | CAKI-1 > 100 µM | NCI-H522 > 100 µM | SW-620 > 100 µM

c1cncc(C2c3[nH]c4ccccc4c3CCN2CCN2CCCCC2)c1 (stereo not drawn)
inactive: UACC-62 > 100 µM | SF-268 > 100 µM | EKVX > 100 µM | SR > 100 µM | M14 16.1 µM | SK-OV-3 > 100 µM | OVCAR-8 > 100 µM | 786-0 > 100 µM | NCI-H23 > 100 µM | HT-29 > 100 µM | CAKI-1 > 100 µM | SN12C > 100 µM | NCI-H522 > 100 µM | SW-620 > 100 µM
